# According to ChEMBL document CHEMBL1201862, “PubChem BioAssay data set” (2004):
#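 Each compound was tested at five concentrations against cells in 96-well plates for 48 hours. GI50 marks 50% less growth.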 Active and inactive are the calls of the source. Cut-off read from the data, not from the text of the source: active = GI50 up to about 1.1 µM and inactive = higher.
# Assays:
# Test in all cases: inhibition of tumour cell growth, NCI panel, 48 h
# SR = tested on: SR
# MOLT-4 = tested on: MOLT-4
# OVCAR-4 = tested on: OVCAR-4
# LOX IMVI = tested on: LOX IMVI
# HOP-62 = tested on: HOP-62
# Hs-578T = tested on: Hs-578T
# OVCAR-8 = tested on: OVCAR-8
# HCT-15 = tested on: HCT-15
# SNB-19 = tested on: SNB-19
# NCI-H522 = tested on: NCI-H522
# CAKI-1 = tested on: CAKI-1
# MDA-MB-435 = tested on: MDA-MB-435
# KM12 = tested on: KM12
# HT-29 = tested on: HT-29
# SF-295 = tested on: SF-295
# SF-268 = tested on: SF-268
# HL-60 = tested on: HL-60
# NCI-H23 = tested on: NCI-H23
# UACC-257 = tested on: UACC-257
Structure (SMILES),GI50 (SR),GI50 (MOLT-4),GI50 (OVCAR-4),GI50 (LOX IMVI),GI50 (HOP-62),GI50 (Hs-578T),GI50 (OVCAR-8),GI50 (HCT-15),GI50 (SNB-19),GI50 (NCI-H522),GI50 (CAKI-1),GI50 (MDA-MB-435),GI50 (KM12),GI50 (HT-29),GI50 (SF-295),GI50 (SF-268),GI50 (HL-60),GI50 (NCI-H23),GI50 (UACC-257)
CSc1cc(Cl)c(C)cc1S(=O)(=O)NC(=O)NNc1ccccn1,> 100 µM (inactive),> 100 µM (inactive),> 100 µM (inactive),> 100 µM (inactive),> 100 µM (inactive),> 100 µM (inactive),> 100 µM (inactive),> 100 µM,> 100 µM (inactive),> 100 µM (inactive),> 100 µM (inactive),> 100 µM (inactive),> 100 µM (inactive),> 100 µM (inactive),> 100 µM (inactive),> 100 µM (inactive),–,–,–
C#CCC(O)c1ccc(OC)c(OCc2ccccc2)c1 (stereo not given),–,23.6 µM (inactive),> 100 µM (inactive),> 100 µM (inactive),> 100 µM (inactive),> 100 µM (inactive),> 100 µM (inactive),> 100 µM,> 100 µM (inactive),> 100 µM (inactive),> 100 µM (inactive),> 100 µM (inactive),> 100 µM (inactive),> 100 µM (inactive),98.4 µM (inactive),> 100 µM (inactive),> 100 µM (inactive),> 100 µM (inactive),52.1 µM (inactive)
CC1C(=O)OCC2=CCN3CCC(OC(=O)C(C)C1(C)O)C23 (stereo not given),–,> 100 µM (inactive),> 100 µM (inactive),> 100 µM (inactive),–,> 100 µM (inactive),> 100 µM (inactive),> 100 µM,> 100 µM (inactive),> 100 µM (inactive),> 100 µM (inactive),> 100 µM (inactive),> 100 µM (inactive),> 100 µM (inactive),> 100 µM (inactive),> 100 µM (inactive),> 100 µM (inactive),> 100 µM (inactive),> 100 µM (inactive)
C[C@H]1C(OCCOC2O[C@@H]3O[C@@]4(C)CC[C@H]5[C@H](C)CCC([C@H]2C)[C@@]35O4)O[C@@H]2O[C@@]3(C)CC[C@H]4[C@H](C)CCC1[C@@]24O3 (stereo not given in full),32.2 µM (inactive),58.6 µM (inactive),80.5 µM (inactive),23.7 µM (inactive),37.7 µM (inactive),–,5.3 µM (inactive),28.2 µM,33.9 µM (inactive),–,37.2 µM (inactive),38.4 µM (inactive),27.5 µM (inactive),35.4 µM (inactive),–,50.5 µM (inactive),24.9 µM (inactive),31.6 µM (inactive),33.1 µM (inactive)
FC(F)(Sc1nc2ccccc2[nH]1)c1nc2ccccc2o1,> 100 µM (inactive),> 100 µM (inactive),> 100 µM (inactive),–,> 100 µM (inactive),> 100 µM (inactive),43.1 µM (inactive),> 100 µM,–,15.8 µM (inactive),> 100 µM (inactive),> 100 µM (inactive),> 100 µM (inactive),> 100 µM (inactive),> 100 µM (inactive),> 100 µM (inactive),–,> 100 µM (inactive),> 100 µM (inactive)
Cc1c(CN2CCOCC2)c(CN2CCOCC2)c(C)n1-c1ccc(Cl)cn1,> 100 µM (inactive),> 100 µM (inactive),> 100 µM (inactive),–,> 100 µM (inactive),> 100 µM (inactive),> 100 µM (inactive),> 100 µM,> 100 µM (inactive),> 100 µM (inactive),> 100 µM (inactive),> 100 µM (inactive),> 100 µM (inactive),> 100 µM (inactive),> 100 µM (inactive),> 100 µM (inactive),–,> 100 µM (inactive),> 100 µM (inactive)
CNC(Cc1ccccc1)c1cccc(OC)c1O (stereo not given),> 100 µM (inactive),> 100 µM (inactive),> 100 µM (inactive),> 100 µM (inactive),> 100 µM (inactive),> 100 µM (inactive),> 100 µM (inactive),> 100 µM,> 100 µM (inactive),> 100 µM (inactive),> 100 µM (inactive),> 100 µM (inactive),> 100 µM (inactive),91.6 µM (inactive),> 100 µM (inactive),> 100 µM (inactive),–,> 100 µM (inactive),18.6 µM (inactive)
O=c1c2ccccc2[nH]c2c(Cl)cc(Cl)c(NC3CCCCC3)c12,12 µM (inactive),23 µM (inactive),41.2 µM (inactive),36.5 µM (inactive),20.7 µM (inactive),–,20.7 µM (inactive),30.1 µM,13.2 µM (inactive),20.1 µM (inactive),31.5 µM (inactive),16.9 µM (inactive),14.8 µM (inactive),16.3 µM (inactive),24.2 µM (inactive),–,18.2 µM (inactive),17 µM (inactive),23.6 µM (inactive)
